These results are taken from US10905665B2, “Chemical modulators of signaling pathways and therapeutic use” (Duke University, priority 2015, dated 2021).

The test system of data set [1] is colon cancer cell line HCT116. In words: Cell proliferation assay (MTS). It counts as cell-based. To be noted: Homo sapiens, HCT-116; HCT116, 72 hours, 0.04 to 10 μM; read-out: Anti-proliferation IC50 (μM), MTS assay. As for the experimental part: The colon cancer cell line HCT116 was used in the cell proliferation assay. The cells were plated in 100 μl of growing medium/well in 96-well plates at 5,000 cells per well and treated with compounds from 0.04 to 10 μM for 72 hours, after which point the cells were analyzed by colorimetric MTS assay (Promega, Madison, Wis., USA). Data were fit using GraphPad Prism (mean±SEM, n 3).
A general note: Tetrazolium assays rely on reduction of a dye to a coloured formazan, in cell work by metabolically active cells.

The conditions of data set [2]: niclosamide dosed orally as a solution at 200 mg/kg, reported (Osada 2011); cited from earlier work.
The target in data set [3] is T1, Frizzled1-GFP (Homo sapiens, UniProt Q9UP38).
T1 construct: expressed in transfected cells
In words: Frizzled internalization assay (Fzd1-GFP). It counts as cell-based. Also on record: key: Punctate similar to control=0; trace amount of punctate greater than control=1; moderate=3; strong=5. The conditions noted are these: 6 hours, 0-5 point scale. As for the experimental part:
The Fzd1-GFP assay was performed following a procedure similar to previously published work (Chen, M. Y.; Wang, J. B.; Lu, J. Y.; Bond, M. C.; Ren, X. R.; Lyerly, H. K.; Barak, L. S.; Chen, W. Biochemistry 2009, 48, 10267). Cells stably expressing Frizzled1-GFP plated in confocal dishes were treated, after 24 hours, with 12.5 μM of test compound or DMSO for 6 hours at 37° C. followed by fixation with 4% paraformaldehyde. The cells were then examined by microscopy using a LSM 510-Meta confocal microscope (Carl Zeiss, Thornwood, N.Y., USA) equipped with 40× and 100× apo chromat objectives. YFP was excited using a 488-nm argon laser line. Images were processed using the LSM software Image Browser (CarlZeiss, Thornwood, N.Y., USA). Plates were read twice in blinded fashion using a 0-5 point scale. ^aPunctate similar to control=0, trace amount of punctate greater than control=1, moderate=3, strong=5.

Data set [4] deals with Wnt/β-catenin transcription. Nature of the data set: Wnt-3A-stimulated TOPFlash reporter assay in HEK293 cells. Format: cell-based. To be noted: Homo sapiens, HEK293, 8 h, Wnt-3A conditioned medium, 8 hour treatment; read-out: Inhibition Wnt/β-catenin transcription TopFlash IC50. (In general: In a reporter assay the amount or activity of a reporter protein is the signal.)
For data set [5], the system named is β-catenin. Nature of the data set: Western blot of cytosolic β-catenin in HCT-116 cells. To be noted: Homo sapiens, HCT-116, 18 h, 2.0 μM compound, read-out: Remaining cytosolic β-catenin. Format: cell-based. As for the experimental part: Western blots were performed following a procedure similar to previously published work (Osada, T.; Chen, M. Y.; Yang, X. Y.; Spasojevic, I.; Vandeusen, J. B.; Hsu, D.; Clary, B. M.; Clay, T. M.; Chen, W.; Morse, M. A.; Lyerly, H. K. Cancer Research 2011, 71, 4172). HCT-116 cells were grown to about 80% confluency in poly-D-lysine coated six-well plates 48 hours before treatment and followed by 2.0 μM compounds or DMSO incubation for 18 hours in growth medium. After treatment, the cytosolic fraction was isolated as described (Osada, T.; Chen, M. Y.; Yang, X. Y.; Spasojevic, I.; Vandeusen, J. B.; Hsu, D.; Clary, B. M.; Clay, T. M.; Chen, W.; Morse, M. A.; Lyerly, H. K. Cancer Research 2011, 71, 4172). Immunoblots using antibodies to […] (E-5, Santa Cruz Biotechnology catalog number sc-7963) was used to detect β-catenin protein levels in the cytosol, and immunoblots using antibodies to β-actin (C-4, Santa Cruz Biotechnology, catalog number SC-47778) was used for loading controls.
Inhibition of Wnt signaling was determined by analyzing the reduction of cytosolic β-catenin by Western blot (FIG. 1, 2).
In general terms: Immunoblotting shows a protein as a band on a membrane.

A short description of data set [6]: Pharmacokinetic studies, niclosamide in mouse plasma. Format: in vivo, CD1 mice. The conditions noted are these: mice. Here is the method: For niclosamide dosed IV, niclosamide was dissolved in a solvent of 67% polyethylene glycol 400 and 33% N,N-dimethylacetamide at a concentration of 3.27 mg/mL and tail vein injected at a dose of 2.6 mg/kg of body weight. Blood samples were obtained at predose and at 0.08, 0.17, 0.33, 0.67, 1.5, 4, 8, 12 hours after drug administration. For oral dosing of compound 74, compound 74 was dissolved in a solvent of 90% polyethylene glycol 300 and 10% 1-methyl-2-pyrrolidinone at a concentration of 20 mg/mL and gavaged at a dose of 200 mg/kg of body weight. Blood samples were obtained at predose and at 0.25, 0.5, 1, 2, 4, 8 hours after drug administration. For oral dosing of compound 61, compound 61 was dissolved in corn oil at a concentration of 20 mg/mL and dosed at 200 mg/kg of body weight. Blood samples were obtained at predose and at 0.25, 0.5, 0.75, 1, 1.5, 4, 8, 12, 24, 48, and 72 hours after drug administration. All the solvent reagents were purchased from Sigma-Aldrich (St. Louis, Mo., USA). CD1 mice were used in the pharmacokinetic studies. Quantification of niclosamide in mouse plasma was done by LC/MS-MS using methods similar to those previously published (Osada, T.; Chen, M. Y.; Yang, X. Y.; Spasojevic, I.; Vandeusen, J. B.; Hsu, D.; Clary, B. M.; Clay, T. M.; Chen, W.; Morse, M. A.; Lyerly, H. K. Cancer Research 2011, 71, 4172.).

Data set [7] has as its system High Fat Diet (HFD)-Induced Hepatic Steatosis. Nature of the data set: Reduction of high fat diet (HFD)-induced hepatic steatosis. It counts as in vivo, C57BL/6J mice. The conditions noted are these: 200 mg/kg oral gavage, three months. Here is the method: Five week old male C57BL/6J mice were fed with chow or high fat diet for two months, followed by same diet and oral gavage of vehicle (corn oil) or compound 61 at 200 mg/kg for three months (daily for 6 days a week from Monday to Saturday). Liver tissue samples were collected after the three month treatment. Pictures shown in FIG. 9 are representative liver sections stained with H&E. A. Chow mice with vehicle; B. Chow mice with compound 61; C. HFD mice with vehicle; D. HFD mice with compound 61. […] The white fat deposits look similar in both panel A and B. However, when mice were fed a high fat diet (panel C), a large amount of white fatty deposits can be seen along with a large amount of dysplastic liver tissue.

T1 sequence (Q9UP38 70-647): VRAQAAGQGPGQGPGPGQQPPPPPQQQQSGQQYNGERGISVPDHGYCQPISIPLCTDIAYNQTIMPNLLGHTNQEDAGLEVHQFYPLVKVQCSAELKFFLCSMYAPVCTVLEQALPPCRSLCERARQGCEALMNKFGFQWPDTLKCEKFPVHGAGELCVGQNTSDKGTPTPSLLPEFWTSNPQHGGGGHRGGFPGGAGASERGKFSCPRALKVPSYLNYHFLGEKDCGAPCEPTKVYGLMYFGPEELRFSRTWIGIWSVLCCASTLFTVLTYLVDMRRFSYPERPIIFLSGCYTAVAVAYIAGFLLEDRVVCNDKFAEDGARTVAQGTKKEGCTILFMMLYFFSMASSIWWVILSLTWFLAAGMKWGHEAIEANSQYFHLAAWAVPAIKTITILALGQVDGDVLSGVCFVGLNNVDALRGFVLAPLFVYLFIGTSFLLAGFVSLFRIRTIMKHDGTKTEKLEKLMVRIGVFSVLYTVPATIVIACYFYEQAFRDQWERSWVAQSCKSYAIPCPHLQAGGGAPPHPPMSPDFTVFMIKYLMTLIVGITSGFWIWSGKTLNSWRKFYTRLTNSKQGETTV

As to `O=C(Nc1ccc([N+](=O)[O-])cc1Cl)c1cc(Cl)ccc1O` [A, 5-chloro-N-(2-chloro-4-nitrophenyl)-2-hydroxybenzamide, reference compound], the IC50 was 0.45 ± 0.05 µM in data set [1] and 340 ± 80 nM in data set [4]. The “Time plasma levels of niclosamide were above the TOPFlash IC50” value in data set [2] is recorded as “less than 1 hour”. Also, the “Fzd1-GFP internalization @12.5 μM” value in data set [3] stood at 5. Moreover, the activity at 2 µM in data set [5] was determined as 8%.

As to `O=C(Nc1ccc(C(F)(F)F)cc1Cl)c1cc(Cl)ccc1O` [Compound 7, 5-chloro-N-(2-chloro-4-(trifluoromethyl)phenyl)-2-hydroxybenzamide], the “Pharmacokinetic properties after oral administration, in words” value in data set [6] is “poor pharmacokinetic properties”. In addition, the IC50 in data set [1] worked out at 0.54 ± 0.08 µM; in data set [4], 560 ± 210 nM. For the same compound, in data set [3], the “Fzd1-GFP internalization @12.5 μM” value was determined as 5. For the same compound, the activity at 2 µM in data set [5] worked out at 6%.

For `O=c1oc2ccc(Cl)cc2c(=O)n1-c1ccc(C(F)(F)F)cc1` [Compound 74, 6-chloro-3-(4-(trifluoromethyl)phenyl)-2H-benzo[e][1,3]oxazine-2,4(3H)-dione], the “Pharmacokinetic properties after oral administration, in words” value in data set [6] is “poor pharmacokinetic properties”. Further, in data set [4], the IC50 came to 320 ± 30 nM.

For `CCCCCCCC(=O)Oc1ccc(Cl)cc1C(=O)Nc1ccc([N+](=O)[O-])cc1Cl` [Compound 61, 4-Chloro-2-((2-chloro-4-nitrophenyl)carbamoyl)phenyl octanoate], in data set [6] (compound 61 in corn oil, 200 mg/kg oral), the “Plasma exposure of niclosamide compared to 200 mg/kg niclosamide dosed orally, in words” value is given as “significantly increased plasma exposure of niclosamide”. Also, the values for the IC50 in data set [1] and in data set [4] were 0.61 ± 0.11 µM and 230 ± 60 nM, respectively. For the same compound, in data set [7] (high fat diet), the “Liver fat deposits and tissue architecture (H&E sections), high fat diet” value is recorded as “limited white fatty deposits without the dysplastic tissue architecture”. In addition, the “Effect on the liver (H&E sections), chow diet” value in data set [7] (normal chow diet) is on record as “minimal to no effect”. Further, the “Fzd1-GFP internalization @12.5 μM” value in data set [3] was 5. The activity at 2 µM in data set [5] was determined as 8%.
